Test results taken from patent US20220339122A1, “METHODS FOR THE TREATMENT OF DISEASES ASSOCIATED WITH DYSREGULATED ACTIVATION AND RECRUITMENT OF NEUTROPHILS” (Chang Gung University, priority 2021, published 2022).

Tests used:
Assay type in all cases: biochemical
Details in all cases: 1-10 μM bletinib or 0.1-3 μM PP2; 125 μM ATP; concentration-dependent
[1] = target: Src (Homo sapiens, UniProt P12931); assay: Cell-free ADP-Glo kinase assay, Src
Procedure: (§1) The kinase activity of SFKs was assessed using an ADP-Glo kinase assay kit (Promega, Fitchburg, USA) according to manufacturer instructions. […] The ADP-Glo reagent was used to end the kinase reaction and remove the remnant ATP; next, the kinase, which converted ADP to ATP, detection reagent was added and incubated for 30 min. Luciferin/luciferase luminescence was determined on an Infinite 200 Pro (Tecan, Switzerland).

[2] = target: Fgr (Homo sapiens, UniProt P09769); assay: Cell-free ADP-Glo kinase assay, Fgr
Procedure: as §1

[3] = target: Lyn (Homo sapiens, UniProt P07948); assay: Cell-free ADP-Glo kinase assay, Lyn
Procedure: as §1

Lyn, sequence (P07948 whole entry): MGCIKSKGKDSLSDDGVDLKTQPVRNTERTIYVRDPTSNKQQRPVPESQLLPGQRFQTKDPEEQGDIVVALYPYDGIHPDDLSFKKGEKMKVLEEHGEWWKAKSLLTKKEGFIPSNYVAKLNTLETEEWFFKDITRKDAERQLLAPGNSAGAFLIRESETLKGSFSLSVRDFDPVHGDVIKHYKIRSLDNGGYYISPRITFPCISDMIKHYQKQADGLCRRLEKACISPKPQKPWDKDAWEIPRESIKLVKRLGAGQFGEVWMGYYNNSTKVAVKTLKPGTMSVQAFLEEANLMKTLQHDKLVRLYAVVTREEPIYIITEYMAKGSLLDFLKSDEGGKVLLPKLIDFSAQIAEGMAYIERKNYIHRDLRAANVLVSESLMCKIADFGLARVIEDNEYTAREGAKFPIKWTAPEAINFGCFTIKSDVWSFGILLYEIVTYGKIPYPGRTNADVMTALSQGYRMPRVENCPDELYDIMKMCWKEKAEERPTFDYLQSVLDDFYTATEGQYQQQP
Fgr, sequence (P09769 whole entry): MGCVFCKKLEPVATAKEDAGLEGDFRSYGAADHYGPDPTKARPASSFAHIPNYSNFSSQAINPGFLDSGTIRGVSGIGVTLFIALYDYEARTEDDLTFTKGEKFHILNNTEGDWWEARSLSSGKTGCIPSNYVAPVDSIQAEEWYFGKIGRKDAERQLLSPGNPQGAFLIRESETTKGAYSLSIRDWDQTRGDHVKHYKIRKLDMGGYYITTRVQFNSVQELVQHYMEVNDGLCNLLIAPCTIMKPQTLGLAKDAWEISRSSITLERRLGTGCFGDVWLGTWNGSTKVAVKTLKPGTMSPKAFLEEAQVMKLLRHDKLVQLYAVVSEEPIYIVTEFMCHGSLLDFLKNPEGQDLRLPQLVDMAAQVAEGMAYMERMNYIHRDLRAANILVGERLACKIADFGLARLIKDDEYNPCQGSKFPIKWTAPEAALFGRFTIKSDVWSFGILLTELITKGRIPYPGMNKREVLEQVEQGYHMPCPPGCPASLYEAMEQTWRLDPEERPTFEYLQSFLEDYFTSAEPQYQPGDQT
Src, sequence (P12931 whole entry): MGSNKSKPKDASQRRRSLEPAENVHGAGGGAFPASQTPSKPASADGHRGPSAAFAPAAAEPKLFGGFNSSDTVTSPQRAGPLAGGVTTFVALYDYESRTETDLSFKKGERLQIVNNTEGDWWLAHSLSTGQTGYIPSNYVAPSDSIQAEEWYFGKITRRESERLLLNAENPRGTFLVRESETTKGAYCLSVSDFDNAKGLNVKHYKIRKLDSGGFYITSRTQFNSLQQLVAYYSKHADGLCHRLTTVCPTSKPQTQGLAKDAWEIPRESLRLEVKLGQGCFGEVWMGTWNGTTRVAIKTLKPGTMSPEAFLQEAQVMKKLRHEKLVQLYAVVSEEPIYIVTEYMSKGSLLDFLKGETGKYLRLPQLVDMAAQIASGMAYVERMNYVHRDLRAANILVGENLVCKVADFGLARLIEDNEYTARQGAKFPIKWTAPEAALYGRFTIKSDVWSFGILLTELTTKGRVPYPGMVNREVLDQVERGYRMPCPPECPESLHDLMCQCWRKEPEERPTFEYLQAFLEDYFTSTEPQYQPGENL

kinase activity of Src [1]: inhibited
kinase activity of Fgr [2]: inhibited
kinase activity of Lyn [3]: inhibited
Compound: CC(C)(C)n1nc(-c2ccc(Cl)cc2)c2c(N)ncnc21 [PP2, reference compound]
